Measured values reported in patent US7132437B2, “Renal-selective biphenylalkyl 1H-substituted-1,2,4-triazole angiotensin II antagonists for treatment of hypertension” (G.D. Searle, priority 1990, dated 2006).

How the values were obtained:
[1] = target: T1, smooth muscle angiotensin II receptor; experiment: Assay A: Angiotensin II Binding Activity; details: rat uterine membrane preparation, displacement of 125I-AII
T1 construct: Rat uterine membranes were prepared from fresh tissue
Description: Assay A: Angiotensin II Binding Activity
Compounds of Formula I were tested for ability to bind to the smooth muscle angiotensin II receptor using a rat uterine membrane preparation. […] Other chemicals were obtained from Sigma Chemical Co. This assay was carried out according to the method of Douglas et al [Endocrinology, 106, 120–124 (1980)]. Rat uterine membranes were prepared from fresh tissue. All procedures were carried out at 4° C. Uteri were stripped of fat and homogenized in phosphate-buffered saline at pH 7.4 containing 5 mM EDTA. The homogenate was centrifuged at 1500×g for 20 min., and the supernatant was recentrifuged at 100,000×g for 60 min. The pellet was resuspended in buffer consisting of 2 mM EDTA and 50 mM Tris-HCl (pH 7.5) to a final protein concentration of 4 mg/ml. […] The reaction was initiated by the addition of membrane protein and the mixture was incubated at 25° C. for 60 min. The incubation was terminated with ice-cold 50 mM Tris-HCl (pH 7.5) and the mixture was filtered to separate membrane-bound labelled peptide from the free ligand. The incubation tube and filter were washed with ice-cold buffer. Filters were assayed for radioactivity in a Micromedic gamma counter. Nonspecific binding was defined as binding in the presence of 10 μM of unlabelled AII. Specific binding was calculated as total binding minus nonspecific binding. […] Binding data were analyzed by a nonlinear least-squares curve fitting program.

rabbit aortic rings = experiment: Assay B: In Vitro Vascular Smooth Muscle Response for AII; assay type: cell-based; details: antagonist at 10^-5 M, two values per cell = aorta rings from two rabbits; for Kb: Oryctolagus cuniculus, read-out: Assay B pA2 (converted)
Description: Assay B: In Vitro Vascular Smooth Muscle-Response for ATT
Compounds of Formula I were tested for antagonist activity in rabbit aortic rings. Male New Zealand white rabbits (2–2.5 kg) were sacrificed using an overdose of pentobarbital and exsanguinated via the carotid arteries. The thoracic aorta was removed, cleaned of adherent fat and connective tissue and then cut into 3-mm ring segments. The endothelium was removed from the rings by gently sliding a rolled-up piece of filter paper into the vessel lumen. The rings were then mounted in a water-jacketed tissue bath, maintained at 37° C., between moveable and fixed ends of a stainless steel wire with the moveable end attached to an FT03 Grass transducer coupled to a Model 7D Grass Polygraph for recording isometric force responses. The bath was filled with 20 ml of oxygenated (95% oxygen/5% carbon dioxide) Krebs solution of the following composition […]: 130 NaCl, 15 NaHCO3, 15 KCl, 1.2 NaH2PO4, 1.2 MgSO4, 2.5 CaCl2, and 11.4 glucose. The preparations were equilibrated for one hour before approximately one gram of passive tension was placed on the rings. Angiotensin II concentration-response curves were then recorded (3×10^−10 to 1×10–5 M). Each concentration of AII was allowed to elicit its maximal contraction, and then AII was washed out repeatedly for 30 minutes before rechallenging with a higher concentration of AII. Aorta rings were exposed to the test antagonist at 10^−5 M for 5 minutes before challenging with AII. Adjacent segments of the same aorta ring were used for all concentration-response curves in the presence or absence of the test antagonist. The effectiveness of the test compound was expressed in terms of pA2 values and were calculated according to H. O. Schild [Br. J. Pharmacol. Chemother., 2, 189–206 (1947)]. […] Each test antagonist was evaluated in aorta rings from two rabbits.

[2] = test system: spontaneously hypertensive rats (SHR); experiment: Assay D: In Vivo Effects of Chronic Infusion of Conjugate (mean arterial pressure, heart rate); design: species or system rat; details: 10 mg/hr i.v. infusion
Description: Assay D: In Vivo Effects of Chronic Infusion of Conjugate of the Invention
(§1) This in vivo experiment was conducted to characterize the effects of the Example 79 conjugate on spontaneously hypertensive rats (SHR) by acute administration i.v. and by chronic administration i.v. The […] compound or saline vehicle was infused continuously for four days in SHR. Mean arterial pressure was measured (Gould Chart Recorder, model 3800; Statham P23 Db pressure transducer) via an indwelling femoral artery catheter between 10:00 a.m. and 2:00 P.M. each day. The Example 79 conjugate (10 mg/hr) or saline was infused via a jugular vein catheter with a Harvard infusion pump. […] A test was conducted to determine whether the Example 79 conjugate would antagonize non-renal, vascular angiotensin II receptors. In this test AII was administered by bolus injection (100 ng/kg) to the SHR rats (described above) on the control day and on days 1, 3 and 4 during conjugate infusion.

[3] = target: T2, non-renal, vascular angiotensin II receptors (Rattus norvegicus, UniProt P25095); experiment: Assay D: AII pressor response during conjugate infusion (systemic AII antagonism); assay type: in vivo; details: SHR, 10 mg/hr infusion, AII bolus 100 ng/kg, control day 31 ± 4
T2 construct: from tissue; host or cells: whole animal: spontaneously hypertensive rat (SHR), systemic vasculature
T2 sequence (P25095 1-359): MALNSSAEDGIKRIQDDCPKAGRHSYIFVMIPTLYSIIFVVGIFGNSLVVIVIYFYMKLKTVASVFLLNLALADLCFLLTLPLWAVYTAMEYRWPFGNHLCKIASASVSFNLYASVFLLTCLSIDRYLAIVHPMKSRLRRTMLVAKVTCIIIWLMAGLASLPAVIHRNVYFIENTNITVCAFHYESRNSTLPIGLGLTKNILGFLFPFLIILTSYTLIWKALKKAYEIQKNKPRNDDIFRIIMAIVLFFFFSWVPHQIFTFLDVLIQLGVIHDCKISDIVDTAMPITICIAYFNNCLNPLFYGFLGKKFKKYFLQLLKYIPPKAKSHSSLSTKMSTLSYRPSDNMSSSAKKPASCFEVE
Description: as §1

AII pressor response = experiment: Assay C: In Vivo Intraduodenal Pressor Assay Response for AII Antagonists; design: species or system Sprague-Dawley rats
Description: Assay C: In Vivo Intraduodenal Pressor Assay Response for AII Antagonists
Male Sprague-Dawley rats weighing 225–300-grams were anesthetized with Inactin (100 mg/kg, i.p.) and catheters were implanted into the trachea, femoral artery, femoral vein and duodenum. Arterial pressure was recorded from the femoral artery catheter on a Gould chart recorder (Gould, Cleveland, Ohio). The femoral vein catheter was used for injections of angiotensin II, mecamylamine and atropine. The tracheal catheter allow for airway patency, and the duodenal catheter was used for intraduodenal (i.d.) administration of test compounds. After surgery, the rats were allowed to equilibrate for 30 minutes. Mecamylamine (3 mg/kg, 0.3 ml/kg) and atropine (400 ug/kg, 0.3 ml/kg) were then given i.v. to produce ganglion blockade. These compounds were administered every 90 minutes throughout the test procedure. Angiotensin II was given in bolus does i.v. (30 ng/kg in saline with 0.5% bovine serum albumin, 0.1 ml/kg) every 10 minutes three times or until the increase in arterial pressure produced was within 3 mmHg for two consecutive AII injections. The last two AII injections were averaged and were taken as the control AII pressor response. […] Angiotensin II injections were then given 5, 10, 20, 30, 45, 60, 75, 90, and 120 minutes after administration of the test compound and response of arterial pressure was monitored. The response to AII was calculated as percent of the control response and then the percent inhibition is calculated as 100 minus the percent control response. Duration of action of a test compound was defined as the time from peak percent inhibition to 50% of peak. One compound at one dose was tested in each rat. Each test compound was tested in two rats and the values for the two rats were averaged.

For `CCCCc1nc(-c2ccccc2)nn1Cc1ccc(-c2ccccc2-c2nnn[nH]2)cc1` (single isomer, unassigned) [Example 21, 5-[4′-[(3-phenyl-5-butyl-1H-1,2,4-triazol-1-yl)methyl](1,1′-biphenyl)-2-yl]-1H-tetrazole], the IC50 [1] was 87 nM and the melting point was 113 °C (dec.).

In the case of `CCCCc1nc(-c2ccccc2)n(Cc2ccc(-c3ccccc3-c3nnn[nH]3)cc2)n1` (single isomer, unassigned) [Example 22, 5-[4′-[(3-butyl-5-phenyl-1H-1,2,4-triazol-1-yl)methyl](1,1′-biphenyl)-2-yl]-1H-tetrazole], the IC50 [1] is reported as 460 nM, the “Assay B pA2” value (rabbit aortic rings) is reported as 6.46 and the melting point is reported as 205 °C (dec.).

With `CCCCc1nc(C(OC)OC)n(Cc2ccc(-c3ccccc3-c3nnn[nH]3)cc2)n1` (single isomer, unassigned) [Example 23, 5-[4′-[[3-butyl-5-(dimethoxymethyl)-1H-1,2,4-triazol-1-yl]methyl][1,1′-biphenyl]-2-yl]-1H-tetrazole] the IC50 [1] was 430 nM and the melting point was 152.5 to 153.5 °C.

In the case of `CCCCc1nc(CCc2ccccc2)nn1Cc1ccc(-c2ccccc2-c2nnn[nH]2)cc1` (single isomer, unassigned) [Example 26], the IC50 [1] is reported as 3.2 nM, the “Assay B pA2” value (rabbit aortic rings) is reported as 9.66 and the melting point is reported as 156 to 157.2 °C.

Molecule `CCCCCCCCc1nc(CCCC)nn1Cc1ccc(-c2ccccc2-c2nnn[nH]2)cc1` (single isomer, unassigned) [Example 28, 5-[4′-[(3-butyl-5-octyl-1H-1,2,4-triazol-1-yl)methyl][1,1′-biphenyl]-2-yl]-1H-tetrazole] has an IC50 [1] of 570 nM and a melting point of 136.5 to 138 °C.

Work on `CCCCc1nc(C)nn1Cc1ccc(-c2ccccc2-c2nnn[nH]2)cc1` (single isomer, unassigned) [Example 32, 5-[4′-[(5-butyl-3-methyl-1H-1,2,4-triazol-1-yl)methyl][1,1′-biphenyl]-2-yl]-1H-tetrazole] yielded an IC50 [1] of 16 nM and a melting point of 170 to 170.5 °C.

In the case of `CCCCc1nc(CCCC)n(Cc2ccc(-c3ccccc3C(=O)NNC(=O)CCC(NC(C)=O)C(=O)O)cc2)n1` (centres unmarked) [Ex. #18 Conjugate, N-acetylglutamic acid, 5-[[4′-[(3,5-dibutyl-1H-1,2,4-triazol-1-yl)methyl][1,1′-biphenyl]-2-yl]]carbonylhydrazide], the “MAP (mean arterial pressure)” value ([2]; day 1, control day 183 ± 5, ± SD) is reported as 159 ± 7 mm Hg, the “Heart Rate” value ([2]; day 1, control day 352 ± 9, ± SD) is reported as 395 ± 21 Beats/min and the “MAP (mean arterial pressure)” value ([2]; day 2, control day 183 ± 5) is reported as 155 ± 4 mm Hg. For the same molecule, the “Heart Rate” value ([2]; day 2, control day 352 ± 9) was 352 ± 12 Beats/min, the “MAP (mean arterial pressure)” value ([2]; day 3, control day 183 ± 5) was 154 ± 6 mm Hg and the “Heart Rate” value ([2]; day 3, control day 352 ± 9) was 344 ± 22 Beats/min. The “MAP (mean arterial pressure)” value ([2]; day 4, control day 183 ± 5) was 166 ± 9 mm Hg, the “Heart Rate” value ([2]; day 4, control day 352 ± 9) was 374 ± 20 Beats/min and the “AII Pressor Response” value ([3]; day 1, ± SD) was 30 ± 6. The “AII Pressor Response” value ([3]; day 3) was 29 ± 5 and the “AII Pressor Response” value ([3]; day 4) was 25 ± 3.

With `CCCCc1nc(CN)nn1Cc1ccc(-c2ccccc2-c2nnn[nH]2)cc1` [Example 3, 5-[4′-[(3-aminomethyl-5-butyl-1H-1,2,4-triazol-1-yl)methyl][1,1′-biphenyl]-2-yl]-1H-tetrazole] the IC50 [1] was 5.4 nM, the Kb (rabbit aortic rings) was 2 nM and the “Assay C Duration” value (AII pressor response; 10 mg/kg intragastrically) was >180 min. The “Assay C Duration” value (AII pressor response; 30 mg/kg intragastrically) was 200^+ min, the inhibition at 10 mg/kg (AII pressor response; Rattus norvegicus, po, 10 mg/kg intragastrically) was 50% and the inhibition at 30 mg/kg (AII pressor response; Rattus norvegicus, po, 30 mg/kg intragastrically) was 100%.

For `CCCCc1nc(CC(=O)O)nn1Cc1ccc(-c2ccccc2-c2nnn[nH]2)cc1` [Example 7, 5-[4′-[(5-butyl-3-carboxymethyl-1H-1,2,4-triazol-1-yl)methyl][1,1′-biphenyl]-2-yl]-1H-tetrazole], the IC50 [1] was 84 nM, the Kb (rabbit aortic rings) was 9.77 nM and the “Assay C Duration” value (AII pressor response; 30 mg/kg intraduodenally) was 130 min. The inhibition at 30 mg/kg (AII pressor response; Rattus norvegicus, intraduodenal, 30 mg/kg intraduodenally) was 90%.

`CCCCc1nc(C(=O)CCC)nn1Cc1ccc(-c2ccccc2-c2nnn[nH]2)cc1` [Example 30] gave a melting point of 150.5 to 152.5 °C.

`CCCCc1nc(C2CCCCC2)n(Cc2ccc(-c3ccccc3-c3nnn[nH]3)cc2)n1` [Example 65, 5-[4′-[(3-butyl-5-cyclohexyl-1H-1,2,4-triazol-1-yl)methyl][1,1′-biphenyl]-2-yl]-1H-tetrazole] showed a melting point of 157.5 to 159.5 °C.

Work on `CCCCc1nc(C2CCCCC2)nn1Cc1ccc(-c2ccccc2-c2nnn[nH]2)cc1` [Example 66, 5-[4′-[(5-butyl-3-cyclohexyl-1H-1,2,4-triazol-1-yl)methyl][1,1′-biphenyl]-2-yl]-1H-tetrazole] yielded a melting point of 125 to 127 °C.
